{
  "source": "patent US20040006043A1",
  "about": "“Methods, pharmaceutical compositions and pharmaceutical kits for enhancing the therapeutic efficiency of cancer chemotherapeutic agents” (RAMOT UNIVERSITY AUTHORITY FOR APPLIED RESEARCH & …, priority 2002, published 2004)",
  "key": {"[1]": {"tested_on": "C6 cells", "settings": "doxorubicin efflux, absence of a chemosensitizer", "experimental": "Cells were grown in monolayers as described above. Several days prior to an experiment the cells (at a density in the range of 5×10^4-5×10^5 cells/ml) were seeded into 6 multiwell culture plates. The experiments were performed when the cells reached confluency.\nAt the end of the incubation the media was removed and the cells were incubated with “drug free media”, which consisted of either buffer alone, for cells loaded with drug only, or buffer that contained the chemosensitizer used at the same dose as in the incubation, for the cells loaded with the drug and the chemosensitizer. This replacement of the loading with the “drug free media” was performed in order to create the driving force for drug efflux from the cell into that external media. At designated periods (time points), the external media was collected and thereafter replaced by fresh “drug free media”, in order to maintain a unidirectional flux, from the cell out. The drug concentration was measured in each of the collected media, and in the cells at the end of the experiment."}, "[2]": {"tested_on": "C26 cells", "assay": "Survival of BALB/c mice inoculated with C26 tumor cells", "assay_type": "in vivo", "settings": "C26 cells in right-hind foot pad", "experimental": "BALB/c mice, female, 8 weeks old at the initiation of experiments were tested. Experiments were performed with 35 mice that were divided into 5 groups.\nMitomycin C (MMC), injection dose of 10 mg/Kg body.\nC26 cells (originating from mouse colon carcinoma) were grown in cell culture flask essentially as described above under the in vitro experiments. At day 0 of the experiment, the cells were harvested, washed several times with PBS and at the final wash with Hank's buffer, counted and immediately injected subcutaneously into the right-hind foot pad of the mice. The injected dose was 5×10^5 cells/30 μl.\nSaline and the chemotherapeutic formulations were administered on days 5, 12 and 19 of the experiment, by injection into the tail vein. All the injected volumes were 0.1 ml. Lithium, at 1 mM, was given in the drinking water continuously throughout the experiment, from the day of tumor inoculation.\n35 mice, inoculated with tumor cells, were divides into groups and each group received a different treatment, as described hereinabove and is presented in Table 2 above. The animal survival was monitored continuously, from the first day of tumor inoculation.\nFIG. 8 presents the animal survival, expressed in percentages of the total number of animals in the group."}, "[3]": {"settings": "Lithium 1 mM; cited from earlier work"}},
  "data": [
    {"smiles": "COc1cccc2c1C(=O)c1c(O)c3c(c(O)c1C2=O)C[C@@](O)(C(=O)CO)C[C@@H]3O[C@H]1C[C@H](N)[C@H](O)[C@H](C)O1", "note": "[F-DOX, doxorubicin]", "values": [
      {"measurement": "fraction of total intracellular drug load diffused out of the cell after 5 minutes", "setting": "[1]", "result": "about 30%"},
      {"measurement": "time for complete depletion of the cell from the drug", "setting": "[1]", "result": "≤ 3", "unit": "h"}
    ]},
    {"smiles": "CO[C@@]12[C@H](COC(N)=O)C3=C(C(=O)C(C)=C(N)C3=O)N1C[C@@H]1N[C@@H]12", "note": "[Free MMC, Mitomycin C]", "values": [
      {"measurement": "day on which all animals were dead", "setting": "[2]; MMC 10 mg/Kg i.v. on days 5, 12, 19", "result": 33, "unit": "days"},
      {"measurement": "day on which animals started dying", "setting": "[2]; MMC 10 mg/Kg i.v. on days 5, 12, 19, Lithium 1 mM in drinking water where given", "result": 29, "unit": "days"}
    ]},
    {"smiles": "[Li]", "note": "[Lithium]", "values": [
      {"measurement": "in vivo safety of the in vitro dose", "setting": "[3]", "result": "within the in vivo safe range"}
    ]}
  ]
}
